In patent US20030198696A1, “Pesticide composition of plant oils and fish oils” (priority 2000, published 2003):

Test system: citrus greasy spot
Assay: Test for citrus greasy spot control
Format: in vivo
Conditions: treatment amounts as printed in 250 gallons of water per acre, untreated control 0.510
Text: Test for citrus greasy spot control. Treatments consisted of the following amounts of compounds in 250 gallons of water per acre: […]

## Copper
  Disease Incidence: 0.050
